# Results from patent US20100291591A1, “NOVEL PLATING MEDIA” (priority 2007, published 2010).
# Test system: S. aureus
# Test: Tolerance of S. aureus towards ELF phosphate in S. aureus plating media
# Assay type: cell-based
# Settings: for Colony Growth: visual inspection relative to media without ELF phosphate
# From the text: Varying concentrations of ELF® phosphate in S. aureus plating media were used to determine the effect on growth and sensitivity of S. aureus to ELF® phosphate. Colony growth in the presence of ELF® phosphate was compared to colony growth in media without ELF® phosphate.
smiles,measurement,setting,value
"O=P(O)(O)O.O=c1[nH]c(-c2cc(Cl)ccc2O)nc2ccc(Cl)cc12 [ELF ® Phosphate, 6-chloro-2-(5-chloro-2-hydroxyphenyl)-quinazolin-4(3H)-one phosphate]",Colony Growth,ELF phosphate 0.080 g/L,Normal
same,Colony Growth,ELF phosphate 0.200 g/L,Normal
same,Colony Growth,ELF phosphate 0.400 g/L,Normal
same,Colony Growth,ELF phosphate 0.600 g/L,Normal
same,effect of concentration on growth,"S. aureus plating media, 0.080-0.600 g/L",no effect on growth
same,inhibition of the growth of S. aureus strains,concentrations of 500 mg/L and higher,do not significantly inhibit
